Measurements from patent publication US12612392B2, “Compound, pharmaceutical compositions containing same, synthesis method therefor and use thereof” (SHENZHEN ZHONGGE BIOLOGICAL TECHNOLOGY CO., LTD., priority 2022, dated 2026).

Tests used:
model animals = conditions: oral administration for three days; cited from earlier work
healthy participants = conditions: Phase 1, healthy participants; cited from earlier work
mouse models = conditions: cited from earlier work
[1] = In vitro liver microsome stability; assay type: in vitro ADME; conditions: liver microsomes, NADPH, 37° C.
Procedure: A 5 mM MgCl2 100 mM K-Mg buffer solution was pre-heated. 5 μL of a 10 mM compound and a reference stock solution were added to 95 μL of acetonitrile (ACN) to prepare a spiked solution. 1.5 μL of a 500 µM spiked solution and 18.75 μL of 20 mg/mL liver microsomes were added to 479.8 μL of the K-Mg buffer solution. NADPH was dissolved in the K-Mg-buffer solution to prepare an NADPH stock solution ([…]). At different time points (0, 5, 15, 30 and 45 minutes), 30 μL of a 1.5 μM spiked solution containing the microsomes was evenly dropped into an assay plate. The plate was preincubated at 37° C. for 5 minutes. At 0 min, 200 μL of ACN containing IS (internal standard, tolbutamid/terfenadine) was added to the wells, and then 15 μl of the NADPH stock solution (6 mM) was added. For other time points, 15 μL of the NADPH stock solution (6 mM) was added to the wells to initiate the reaction and start the timing. At 5, 15, 30 and 45 min, the reaction was stopped by adding 200 μL of ACN containing IS to the corresponding wells of the plate. After quenching, the plate was shaken at 600 rpm for 10 minutes and then centrifuged at 4000 rpm for 50 minutes. 80 μL of the supernatant from each well was transferred to a 96-well sample plate containing 160 μL of pure water for UPLC/MS/MS analysis.

NC(CO)(CO)CO.O=C(COc1ccc(Cl)c(F)c1)NC12CCC(NC(=O)COc3ccc(Cl)c(F)c3)(CC1)[C@@H](OCOP(=O)([O-])O)C2.[Na+] [ABBV-CLS-7262]
brain function of model animals (model animals): restored to youthful levels

O=C(COc1ccc(Cl)cc1)NC12CC(c3nnc([C@H]4C[C@@H](OC(F)(F)F)C4)o3)(C1)C2 [DNL-343]
safety and tolerability (healthy participants): demonstrated its safety and tolerability

O=C(COc1ccc(Cl)cc1)NC1CCC(NC(=O)COc2ccc(Cl)cc2)CC1 (stereo not shown) [ISRIB]
long-term memory in mouse models (mouse models): improve long-term memory

O=C(c1ccc(F)cc1)C1CCN(CCn2c(=O)[nH]c3ccccc3c2=O)CC1 [Ketanserin, reference compound]
half-life at 1 µM [1]: 36.8 min
